Data from patent US8647615B1, “Methods for attracting honey bee parasitic mites” (The United States of America, as represented by the …, priority 2010, dated 2014).
Entries after “also recorded” stand apart in the source; their conditions may differ.

Key:
[1] = tested on: phoretic mites on adult bees; assay: bottom screen assay: mite-infested adult worker bees in screen bottomed jar over water trap; assay type: in vivo, Varroa mites; conditions: 20 minutes; for mites that fell off bees versus control jars: 200 mite-infested bees per jar, 100 μL, three replicates, control methylene chloride; for mite activity level versus control treatments: exposure to acid volatiles
Method: We then performed a bottom screen assay to assess the response of phoretic mites on adult bees to the acid volatiles. We placed 200 mite-infested adult worker bees in a screen bottomed jar inverted over a water trap. A total of nine jars were used, three replicates of each treatment. The mites and bees were exposed to either butyric acid, isobutyric acid, or a control solvent (methylene chloride) (100 μL) for 20 minutes. Mites that moved off the bees fell into the water trap below. At the end of the experiment, the bees were washed with alcohol to estimate the number of mites that remained on the bees.

[2] = tested on: Free-roaming (off the adult bee) mites; assay: four choice arena bioassay; assay type: in vivo, Varroa mites; conditions: for mite attraction: movement toward odor source (contact or position at end of bioassay): 5% by volume in distilled water vs three water controls, 5 minutes, expected value 25%; for arrestant (stopping) behavior: four choice arena, 5% by volume in distilled water
From the text: (§1) We developed a four choice bioassay to evaluate the responses of mites to highly concentrated volatiles released at very close distances (7 mm). Our choice arena consisted of four odor sources presented directly beneath a permeable mesh floor. Each odor source was introduced by capillary release from a capillary tube, the volatiles diffused up through the permeable mesh floor. Free-roaming (off the adult bee) mites were introduced onto a vertical pin placed in the center of the arena. […] The expected value for response is 25% as indicated by the dashed line. […] Free-roaming mites were also exposed to these chemicals under the microscope to visually evaluate mite detection, attraction, and arrestant responses to the acid volatiles.

Varroa mite forelegs = assay: coupled gas chromatography and electroantennographic detection (GC-EAD) with mite forelegs; design: species or system Varroa mites; conditions: standard with compounds at equal concentrations
From the text: To determine if mites can detect the acid compounds we used coupled gas chromatography and electroantennographic detection (GC-EAD) and electroantennography (EAG). […] A detecting electrode was set up with electrode gel on each contact and then a mite was dissected so that both of its forelegs could be set across the electrodes. The electrode gel provides both a better contact and keeps the forelegs from drying out. For GC-EAD we used a standard containing our two attractive acids along with other short chain acids (i.e., acetic acid, propanoic acid, and hexanoic acid) and common bee odors (iso-pentyl acetate, delta-3-carene, E-(β)-ocimine) at equal concentrations. […] We used EAG to determine the responses of forelegs to the individual detected compounds. […] The dashed line in FIG. 6 represents the level of the control response.

Free-roaming mites = assay: visual evaluation of free-roaming mites under the microscope; assay type: in vivo, Varroa mites; conditions: for excitation and search behaviors (questing and casting): acid volatiles from capillary tubes; for movement relative to acid droplets: free-roaming mites
From the text: as §1, with “Once we determined that the mites could perceive and respond to the acid volatiles, we examined whether these acids acted as attractants or repellents. We” for “We”

mites [3] = assay: two choice diffusion bioassay, Ethovision tracking; assay type: in vivo, Varroa mites; conditions: 5% butyric acid in water vs water, 8 mites, p<0.001
From the text: (§2) This experiment used the tracking software Ethovision XT (Noldus Information Technology, Leesburg Va.) to monitor the position of mites in an arena. The arena was a four quadrant petri dish 7.5 cm in diameter, the sides of the dish were ground down so that the separations were all the same height as the edges. A plexiglass ring, 7.5 cm outside diameter 2.5 cm high, with 11 micron Nitex fabric attached to the bottom contained the mite and separated the mite from the odor sources but allowed the odors to diffuse through the fabric. The petri dish quadrants were filled either with 5% butyric acid in water, or water only as a control. Opposite quadrants were filled with the same material so that the bottom of each quadrant was completely covered with liquid. This ensured equal surface areas for diffusion of the solute and solvent. Each experiment was conducted with 8 mites. […] A second set of no choice assays was also performed, these assays used an un-separated petri dish to hold the 5% acid solution and the movements of the mites over the solution were monitored.

mites [4] = assay: no choice test with Ethovision analysis; assay type: in vivo, Varroa mites
From the text: as §2

CC(C)C(=O)O [isobutyric acid]
mites that fell off bees versus control jars [1]: significantly more mites fell off bees
mite activity level versus control treatments [1]: much higher activity levels
mite attraction: movement toward odor source (contact or position at end of bioassay) [2]: significantly more likely to move in the direction of
arrestant (stopping) behavior [2]: did not display any arrestant (stopping) behavior
detection by mite forelegs (GC-EAD) (Varroa mite forelegs): excited by
excitation and search behaviors (questing and casting) (Free-roaming mites): showed excitation and search behaviors
movement relative to acid droplets (Free-roaming mites): moved toward and occasionally into acid droplets

CCCCCC(=O)O [hexanoic acid]
detection by mite forelegs (GC-EAD) (Varroa mite forelegs): did not appear to be detected

CC(=O)O [acetic acid]
detection by mite forelegs (GC-EAD) (Varroa mite forelegs): could clearly detect

CCCC(=O)O [butyric acid]
time spent in zone over odor source versus control zones (mites [3]): spent significantly more time
time spent in zone over odor source versus control zones (mites [3]; listed as Butyric Acid): more time is spent
movement (speed, stopping, time moving) versus water control (mites [4]; 5% acid solution, un-separated petri dish): significantly less time moving; also recorded: moving slower and stopping more often
time spent in zone/arena over the acid versus water (mites [4]; 5% acid solution, un-separated petri dish, p<0.001): significantly more time; also recorded: spent more time in the arena
arrestant behaviors on sustained exposure (mites [4]; EthoVision diffusion bioassays, sustained exposure to high concentrations of volatiles): caused arrestant behaviors
mites that fell off bees versus control jars [1]: significantly more mites fell off bees
mite activity level versus control treatments [1]: much higher activity levels
mite attraction: movement toward odor source (contact or position at end of bioassay) [2]: significantly more likely to move in the direction of
arrestant (stopping) behavior [2]: did not display any arrestant (stopping) behavior
detection by mite forelegs (GC-EAD) (Varroa mite forelegs): excited by
excitation and search behaviors (questing and casting) (Free-roaming mites): showed excitation and search behaviors
movement relative to acid droplets (Free-roaming mites): moved toward and occasionally into acid droplets

C=C/C(C)=C/CC=C(C)C [E-(β)-ocimine]
detection by mite forelegs (GC-EAD) (Varroa mite forelegs): did not appear to be detected

CC(=O)OCCC(C)C [iso-pentyl acetate]
detection by mite forelegs (GC-EAD) (Varroa mite forelegs): did not appear to be detected

CCC(=O)O [propanoic acid]
detection by mite forelegs (GC-EAD) (Varroa mite forelegs): did not appear to be detected

CC1=CCC2C(C1)C2(C)C (stereo not shown) [delta-3-carene]
detection by mite forelegs (GC-EAD) (Varroa mite forelegs): did not appear to be detected
